How the values were obtained:
[1] = test system: Y397 phosphorylation of FAK; assay: Western blotting with Y397 antibody, time course in pancreatic tumor cells; assay type: cell-based, human; conditions: 100 μM, 6 hours or less
Protocol: (§1) Cell Viability Assay—The Cells were treated with peptides for 24 hours at different peptide concentrations. The 3-(4,5-dimethylthiazol-2-yl)-5-(3-carboxymethoxyphenyl)-2-(4-sulfophenyl)-2H-tetrazolium compound from Promega Viability kit (Madison, Ill.) was added, and the cells were incubated at 37° C. for 1-2 hours. The optical density on 96-plate was analyzed with a microplate reader at 490 nm to determine cell viability. In addition, cells were stained with trypan blue after 24 hours of treatment with Y15 and the percent of cells that stained positive were determined with a hemacytometer. […] Then 2% SDS was added to the dried plated and OD at 590 nm was measured for detecting cell adhesion. […] Protein concentrations were determined using a Bio-Rad Kit. The boiled samples were loaded on Ready SDS-10% PAGE gels (Bio Rad, Inc) and used for Western blot analysis with the protein-specific antibody. […] Detachment Assay—Cells were plated with and without inhibitors for 24 hours, and detached and attached cells were counted in a hemocytometer. We calculated the percent of detachment by dividing the number of detached cells by the total number of cells. The percent of detached cells was calculated in three independent experiments. […] For each experiment 300 cells per treatment were counted. […]

[2] = test system: BT474 breast cancer cells; assay: MTT cell viability assay, BT474; assay type: cell-based; conditions: 24 hours
Protocol: as §1

BT474 cells = assay: Apoptosis assay (Hoechst staining), BT474; assay type: cell-based
Protocol: (§2) Cell Viability Assay—The Cells were treated with peptides for 24 hours at different peptide concentrations. The 3-(4,5-dimethylthiazol-2-yl)-5-(3-carboxymethoxyphenyl)-2-(4-sulfophenyl)-2H-tetrazolium compound from Promega Viability kit (Madison, Ill.) was added, and the cells were incubated at 37° C. for 1-2 hours. The optical density on 96-plate was analyzed with a microplate reader at 490 nm to determine cell viability. In addition, cells were stained with trypan blue after 24 hours of treatment with Y15 and the percent of cells that stained positive were determined with a hemacytometer. Cell adhesion assay—The poly-L-Lysine or Collagen (5 μg/ml) coated 96-well plates were blocked with the blocking buffer (medium with 0.5% BSA) for 1 hour at 37 C. The cells were pre-treated with drugs for 3 hours and plated for adhesion at 4×10^5 cells. Cells were incubated at 37 C for 1 hour, fixed in 3.7% formaldehyde, washed in 0.1% BSA in PBS and stained with crystal violet (5 mg/ml in 2% ethanol) for 10 minutes. Then 2% SDS was added to the dried plated and OD at 590 nm was measured for detecting cell adhesion. […] Protein concentrations were determined using a Bio-Rad Kit. The boiled samples were loaded on Ready SDS-10% PAGE gels (Bio Rad, Inc) and used for Western blot analysis with the protein-specific antibody. […] Detachment Assay—Cells were plated with and without inhibitors for 24 hours, and detached and attached cells were counted in a hemocytometer. We calculated the percent of detachment by dividing the number of detached cells by the total number of cells. The percent of detached cells was calculated in three independent experiments. […] The percent of apoptotic cells was calculated as a ratio of apoptotic detached cells divided by the total number of cells in three independent experiments in several fields with the fluorescent microscope. For each experiment 300 cells per treatment were counted. In vitro Kinase Assay—10 μCi of [γ-^32P]-ATP in a kinase buffer (20 mM HEPES, pH 7.4, 5 mM MgCl2, 5 mM MnCl2, 0.1 mM Na3VO4 with 0.1 μg of purified FAK protein were incubated in a kinase buffer with 10 μCi of [γ-^32P]-ATP. The kinase reaction was performed for 5 minutes at room temperature and stopped by addition of 2× Laemmli buffer. Proteins were separated on a Ready SDS-10% PAGE gel, and the phosphorylated enolase was visualized by autoradiography. KinaseProfiler screening—Kinase specificity screening was performed with KinaseProfiler™ Service (Millipore) available on http://www.millipore.com/drugdiscovery/dd3/KinaseProfiler. […]

c-Src phosphorylation = assay: Phosphorylation of c-Src in cells; assay type: cell-based; conditions: not shown
Protocol: as §1

caspase-3 = assay: Caspase-3 immunohistochemistry of Panc-1 tumors; assay type: in vivo, mice; conditions: 30 mg/kg, no significant increase
Protocol: as §1

[3] = test system: Y397 phosphorylation of FAK; assay: Western blotting with Y397 FAK antibody, Panc-1 cells; assay type: cell-based, human; conditions: 24 hours
Protocol: as §2, with “counted.” for “counted. In vitro Kinase Assay—10 μCi of [γ-^32P]-ATP in a kinase buffer (20 mM HEPES, pH 7.4, 5 mM MgCl2, 5 mM MnCl2, 0.1 mM Na3VO4 with 0.1 μg of purified FAK protein were incubated in a kinase buffer with 10 μCi of [γ-^32P]-ATP. The kinase reaction was performed for 5 minutes at room temperature and stopped by addition of 2× Laemmli buffer. Proteins were separated on a Ready SDS-10% PAGE gel, and the phosphorylated enolase was visualized by autoradiography. KinaseProfiler screening—Kinase specificity screening was performed with KinaseProfiler™ Service (Millipore) available on http://www.millipore.com/drugdiscovery/dd3/KinaseProfiler.”

[4] = test system: Y397 phosphorylation of FAK; assay: Western blotting with Y397 FAK antibody, BT474 cells; assay type: cell-based
Protocol: Cell Viability Assay—The Cells were treated with peptides for 24 hours at different peptide concentrations. The 3-(4,5-dimethylthiazol-2-yl)-5-(3-carboxymethoxyphenyl)-2-(4-sulfophenyl)-2H-tetrazolium compound from Promega Viability kit (Madison, Ill.) was added, and the cells were incubated at 37° C. for 1-2 hours. The optical density on 96-plate was analyzed with a microplate reader at 490 nm to determine cell viability. In addition, cells were stained with trypan blue after 24 hours of treatment with Y15 and the percent of cells that stained positive were determined with a hemacytometer. Cell adhesion assay—The poly-L-Lysine or Collagen (5 μg/ml) coated 96-well plates were blocked with the blocking buffer (medium with 0.5% BSA) for 1 hour at 37 C. The cells were pre-treated with drugs for 3 hours and plated for adhesion at 4×10^5 cells. Cells were incubated at 37 C for 1 hour, fixed in 3.7% formaldehyde, washed in 0.1% BSA in PBS and stained with crystal violet (5 mg/ml in 2% ethanol) for 10 minutes. Then 2% SDS was added to the dried plated and OD at 590 nm was measured for detecting cell adhesion. Western Blotting—Cells or homogenized tumor samples were washed twice with cold 1×PBS and lysed on ice for 30 minutes in a buffer containing: 50 mM Tris-HCl (pH 7.5), 150 mM NaCl, 1% Triton-X, 0.5% NaDOC, 0.1% SDS, 5 mM EDTA, 50 mM NaF, 1 mM NaVO3, 10% glycerol and protease inhibitors: 10 μg/ml leupeptin, 10 μg/ml PMSF and 1 μg/ml aprotinin. The lysates were cleared by centrifugation at 10,000 rpm for 30 minutes at 4° C. Protein concentrations were determined using a Bio-Rad Kit. The boiled samples were loaded on Ready SDS-10% PAGE gels (Bio Rad, Inc) and used for Western blot analysis with the protein-specific antibody. Immunoblots were developed with chemiluminescence Renaissance reagent (NEN Life Science Products, Inc). Immunoprecipitation. Immunoprecipitation was performed according to the standard protocol. In brief, the pre-cleared lysates with equal amount of protein were incubated with 1 μg of primary antibody and 30 μl A/G agarose beads overnight at 4° C. The precipitates were washed with lysis buffer three times and re-suspended in 2× Laemmli buffer. The boiled samples were used for Western blotting, as described above. Detachment Assay—Cells were plated with and without inhibitors for 24 hours, and detached and attached cells were counted in a hemocytometer. We calculated the percent of detachment by dividing the number of detached cells by the total number of cells. The percent of detached cells was calculated in three independent experiments. Apoptosis Assay. Detached cells were collected and fixed in 3.7% formaldehyde in 1×PBS solution for the apoptosis assay. Detection of apoptosis was done with Hoechst 33342 staining. The percent of apoptotic cells was calculated as a ratio of apoptotic detached cells divided by the total number of cells in three independent experiments in several fields with the fluorescent microscope. For each experiment 300 cells per treatment were counted. In vitro Kinase Assay—10 μCi of [γ-^32P]-ATP in a kinase buffer (20 mM HEPES, pH 7.4, 5 mM MgCl2, 5 mM MnCl2, 0.1 mM Na3VO4 with 0.1 μg of purified FAK protein were incubated in a kinase buffer with 10 μCi of [γ-^32P]-ATP. The kinase reaction was performed for 5 minutes at room temperature and stopped by addition of 2× Laemmli buffer. Proteins were separated on a Ready SDS-10% PAGE gel, and the phosphorylated enolase was visualized by autoradiography. KinaseProfiler screening—Kinase specificity screening was performed with KinaseProfiler™ Service (Millipore) available on http://www.millipore.com/drugdiscovery/dd3/KinaseProfiler. The screening was performed with 1 μM Y15, 10 μM ATP and kinase substrates on 9 recombinant kinases according to Millipore protocol. Tumor Growth in Nude Mice—Female nude mice, 6 weeks old, were purchased from Harlan Laboratory. […]

[5] = test system: BT474, T47D, MCF-7 breast cancer, HT29 colon cancer, C8161 melanoma, A549 lung cancer cell lines; assay: MTT cell viability screen of 36 compounds in 6 cancer cell lines; assay type: cell-based; conditions: 100 μM, 24 hours, among 36 compounds
Protocol: as §1

Compound: Cl.Cl.Cl.Cl.Nc1cc(N)c(N)cc1N [Y15, 1,2,4,5-benzenetetraamine tetrahydrochloride]
- Y397 phosphorylation after 6 hours or less [1]: did not significantly decrease Y397 phosphorylation
- dose at which viability started to decrease [2]: 10 µM
- doses at which viability was significantly blocked [2]: 50 to 100 µM
- apoptotic nuclei (Hoechst) (BT474 cells; 200 μM): No apoptotic nuclei were detected
- apoptotic levels (BT474 cells; 50-100 μM): less than 6%
- phosphorylation of c-Src (c-Src phosphorylation): did not inhibit
- apoptotic cells in tumors (caspase-3 staining) (caspase-3): 6%
- inhibition of Y397 phosphorylation compared with TAE226 ([3]; 100 μM): same or better inhibition as TAE226
- dose from which Y397 phosphorylation of FAK was inhibited [3]: 0.1 µM
- total FAK level ([3]; higher doses): down regulated
- total FAK level ([4]; 100 μM): down-regulates FAK
- treatment time enough to completely block Y397-phosphorylation ([4]; 100 μM): 8 h
- inhibition of Y397 phosphorylation compared with TAE226 ([4]; 100 μM dose, 24 hours): same inhibition as TAE226
- Y397 phosphorylation after 4 hours ([4]; 100 μM, 4 hours): did not significantly decreased Y397 phosphorylation
- Y397 phosphorylation of FAK ([4]; 100 μM, 24 hours): specifically inhibited Y397 phosphorylation of FAK
- dose with high inhibition of Y397 phosphorylation ([4]; 24 hours): 50 µM
- dose with maximal inhibition of Y397 phosphorylation ([4]; 24 hours): 100 µM
- cell viability [5]: maximally decreased cell viability
